Tests used:
Alpha-glucosidase MAL12 = Alpha-glucosidase MAL12 (Saccharomyces cerevisiae S288c, UniProt P53341); experiment: Inhibition of Saccharomyces cerevisiae alpha-glucosidase assessed as 4-nitrophenol release from 4-nitrophenyl alpha-D-glucopyranoside preincubated for 15 mins measured after 15 mins
[1] = target: T1, Sucrase-isomaltase, intestinal (Rattus norvegicus, UniProt P23739); experiment: Inhibition of rat intestinal sucrase using sucrose as substrate assessed as D-glucose release from substrate preincubated for 15 mins measured after 60 mins
T1 sequence (P23739 1-1013 limits assumed): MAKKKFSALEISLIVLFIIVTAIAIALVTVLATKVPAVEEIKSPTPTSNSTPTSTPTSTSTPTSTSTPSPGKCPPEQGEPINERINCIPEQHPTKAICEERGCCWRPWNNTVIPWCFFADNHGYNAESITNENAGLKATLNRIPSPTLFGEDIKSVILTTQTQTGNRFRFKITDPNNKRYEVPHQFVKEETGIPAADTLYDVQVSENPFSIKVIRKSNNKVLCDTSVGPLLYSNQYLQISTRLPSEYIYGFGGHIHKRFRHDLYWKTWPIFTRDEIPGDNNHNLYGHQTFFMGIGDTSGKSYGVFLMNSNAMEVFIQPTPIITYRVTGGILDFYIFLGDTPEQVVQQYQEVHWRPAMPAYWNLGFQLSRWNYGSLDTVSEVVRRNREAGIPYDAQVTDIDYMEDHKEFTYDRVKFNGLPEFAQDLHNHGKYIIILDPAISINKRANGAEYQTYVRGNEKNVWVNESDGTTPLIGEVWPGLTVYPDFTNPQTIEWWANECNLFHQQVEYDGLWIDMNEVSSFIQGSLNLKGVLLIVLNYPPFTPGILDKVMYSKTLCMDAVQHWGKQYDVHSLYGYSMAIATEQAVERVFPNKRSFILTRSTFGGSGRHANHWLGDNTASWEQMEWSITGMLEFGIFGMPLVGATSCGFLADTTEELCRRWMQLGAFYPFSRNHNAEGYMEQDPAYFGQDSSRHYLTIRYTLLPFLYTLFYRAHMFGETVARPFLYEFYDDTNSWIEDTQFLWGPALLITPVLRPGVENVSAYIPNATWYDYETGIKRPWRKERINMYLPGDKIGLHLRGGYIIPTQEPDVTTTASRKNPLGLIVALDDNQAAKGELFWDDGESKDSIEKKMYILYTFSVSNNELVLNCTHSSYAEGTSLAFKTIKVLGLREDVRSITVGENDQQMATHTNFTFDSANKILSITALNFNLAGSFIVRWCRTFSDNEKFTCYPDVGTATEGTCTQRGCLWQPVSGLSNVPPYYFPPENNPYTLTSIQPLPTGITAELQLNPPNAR
T1 sequence (P23739 1014-1841 limits assumed): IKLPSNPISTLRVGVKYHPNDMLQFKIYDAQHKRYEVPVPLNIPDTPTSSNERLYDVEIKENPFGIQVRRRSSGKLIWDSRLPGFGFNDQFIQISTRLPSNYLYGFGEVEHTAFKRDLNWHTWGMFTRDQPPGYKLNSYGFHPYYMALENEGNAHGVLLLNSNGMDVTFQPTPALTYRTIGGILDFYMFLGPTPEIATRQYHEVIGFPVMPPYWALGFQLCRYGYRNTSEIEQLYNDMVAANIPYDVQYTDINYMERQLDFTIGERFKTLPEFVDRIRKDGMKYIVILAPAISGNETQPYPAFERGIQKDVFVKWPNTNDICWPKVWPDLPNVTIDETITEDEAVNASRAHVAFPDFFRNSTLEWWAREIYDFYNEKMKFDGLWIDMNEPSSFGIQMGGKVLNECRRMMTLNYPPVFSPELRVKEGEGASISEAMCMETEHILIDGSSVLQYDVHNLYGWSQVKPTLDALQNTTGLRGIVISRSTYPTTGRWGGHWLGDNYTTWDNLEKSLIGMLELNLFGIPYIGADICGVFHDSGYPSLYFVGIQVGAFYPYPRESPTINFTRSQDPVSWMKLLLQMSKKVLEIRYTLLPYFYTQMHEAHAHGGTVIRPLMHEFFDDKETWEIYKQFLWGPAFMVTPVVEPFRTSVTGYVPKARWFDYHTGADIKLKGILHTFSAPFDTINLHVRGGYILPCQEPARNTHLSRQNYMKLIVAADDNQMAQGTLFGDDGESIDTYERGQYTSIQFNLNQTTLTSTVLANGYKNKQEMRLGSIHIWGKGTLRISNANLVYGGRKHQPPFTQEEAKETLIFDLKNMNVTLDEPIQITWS

[2] = target: Maltase-glucoamylase, intestinal (Rattus norvegicus)
[3] = target: T1, Sucrase-isomaltase, intestinal; experiment: Competitive inhibition of rat intestinal sucrase using sucrose as substrate by Lineweaver-Burk plot analysis

Sequence of Alpha-glucosidase MAL12 (P53341 whole entry): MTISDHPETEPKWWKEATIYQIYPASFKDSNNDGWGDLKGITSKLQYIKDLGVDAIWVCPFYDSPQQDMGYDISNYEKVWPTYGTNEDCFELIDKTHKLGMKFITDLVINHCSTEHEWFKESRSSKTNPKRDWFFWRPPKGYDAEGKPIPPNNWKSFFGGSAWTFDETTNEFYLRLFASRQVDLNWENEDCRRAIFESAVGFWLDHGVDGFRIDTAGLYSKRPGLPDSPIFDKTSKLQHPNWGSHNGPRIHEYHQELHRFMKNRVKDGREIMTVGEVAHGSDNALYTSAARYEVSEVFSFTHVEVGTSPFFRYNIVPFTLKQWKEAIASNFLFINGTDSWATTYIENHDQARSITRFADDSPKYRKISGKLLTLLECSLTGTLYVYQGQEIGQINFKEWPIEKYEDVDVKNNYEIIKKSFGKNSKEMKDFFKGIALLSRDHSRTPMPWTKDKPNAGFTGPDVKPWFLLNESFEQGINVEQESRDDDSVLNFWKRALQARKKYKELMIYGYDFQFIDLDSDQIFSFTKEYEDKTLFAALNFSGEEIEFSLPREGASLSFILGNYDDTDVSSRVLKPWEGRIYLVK

| Structure (SMILES) | IC50 (Alpha-glucosidase MAL12) | IC50 [1] | IC50 [2] | Ki [3] |
| --- | --- | --- | --- | --- |
| Cc1ccc(S(=O)(=O)NC[C@@H]2O[C@H](CO)[C@@H](O)[C@H](O)[C@H]2O)cc1 | 101 µM | 1420 µM | 476 µM | – |
| O=C(NC[C@@H]1O[C@H](CO)[C@@H](O)[C@H](O)[C@H]1O)c1ccccc1O | 470 µM | > 2000 µM | 1010 µM | – |
| O=C(NC[C@@H]1O[C@H](CO)[C@@H](O)[C@H](O)[C@H]1O)c1ccc([N+](=O)[O-])cc1 | 36.2 µM | 1000 µM | 846 µM | – |
| COc1ccccc1C(=O)NC[C@@H]1O[C@H](CO)[C@@H](O)[C@H](O)[C@H]1O | 471 µM | 1090 µM | 719 µM | – |
| CC(=O)Oc1cc(C(=O)NC[C@@H]2O[C@H](CO)[C@@H](O)[C@H](O)[C@H]2O)cc(OC(C)=O)c1OC(C)=O | 225 µM | 15.6 µM | 7.7 µM | – |
| O=C(NC[C@@H]1O[C@H](CO)[C@@H](O)[C@H](O)[C@H]1O)c1cccc([N+](=O)[O-])c1 | 283 µM | 381 µM | – | – |
| CC(=O)Oc1ccc(C(=O)NC[C@@H]2O[C@H](CO)[C@@H](O)[C@H](O)[C@H]2O)cc1 | 96.5 µM | 160 µM | 165 µM | – |
| O=C(NC[C@@H]1O[C@H](CO)[C@@H](O)[C@H](O)[C@H]1O)c1ccc(O)cc1 | 1910 µM | 1640 µM | 758 µM | – |
| O=C(NC[C@@H]1O[C@H](CO)[C@@H](O)[C@H](O)[C@H]1O)c1ccc(F)cc1 | 1520 µM | 403 µM | 464 µM | – |
| COc1ccc(C(=O)NC[C@@H]2O[C@H](CO)[C@@H](O)[C@H](O)[C@H]2O)c(OC)c1 | 1860 µM | > 2000 µM | – | – |
| O=C(NC[C@@H]1O[C@H](CO)[C@@H](O)[C@H](O)[C@H]1O)c1ccc(Cl)cc1Cl | 466 µM | 991 µM | 585 µM | – |
| O=C(/C=C/c1ccc(O)cc1)NC[C@@H]1O[C@H](CO)[C@@H](O)[C@H](O)[C@H]1O | 5.6 µM | 405 µM | – | – |
| COc1ccc(C(C)NC[C@@H]2O[C@H](CO)[C@@H](O)[C@H](O)[C@H]2O)cc1O (stereo partly specified) | 184 µM | 107 µM | – | – |
| O=C(/C=C/c1ccccc1)NC[C@@H]1O[C@H](CO)[C@@H](O)[C@H](O)[C@H]1O | 2.3 µM | 314 µM | – | – |
| CC(=O)Oc1ccc(/C=C/C(=O)NC[C@@H]2O[C@H](CO)[C@@H](O)[C@H](O)[C@H]2O)cc1 | 142 µM | 155 µM | – | – |
| COc1cc(/C=C/C(=O)NC[C@@H]2O[C@H](CO)[C@@H](O)[C@H](O)[C@H]2O)ccc1O | 102 µM | 253 µM | 382 µM | – |
| COc1ccc(C(=O)NC[C@@H]2O[C@H](CO)[C@@H](O)[C@H](O)[C@H]2O)cc1 | 231 µM | 795 µM | 831 µM | – |
| CC(=O)Oc1ccc(/C=C/C(=O)NC[C@@H]2O[C@H](CO)[C@@H](O)[C@H](O)[C@H]2O)cc1OC(C)=O | 355 µM | 10.4 µM | – | 17.1 µM |

The remaining lines, values ahead:

| IC50 (Alpha-glucosidase MAL12) | IC50 [1] | IC50 [2] | Ki [3] | Structure (SMILES) |
| --- | --- | --- | --- | --- |
| 149 µM | 124 µM | – | – | OC[C@H]1O[C@@H](CNCc2ccc(O)cc2)[C@H](O)[C@@H](O)[C@@H]1O |
| 116 µM | 97.4 µM | – | – | OC[C@H]1O[C@@H](CNC/C=C/c2ccccc2)[C@H](O)[C@@H](O)[C@@H]1O |
| 115 µM | 301 µM | 202 µM | – | OC[C@H]1O[C@@H](CNCc2ccc(F)cc2)[C@H](O)[C@@H](O)[C@@H]1O |
| 374 µM | 173 µM | 324 µM | – | OC[C@H]1O[C@@H](CNCc2cccs2)[C@H](O)[C@@H](O)[C@@H]1O |
| 534 µM | 770 µM | – | – | O=C(NC[C@@H]1O[C@H](CO)[C@@H](O)[C@H](O)[C@H]1O)c1ccco1 |
| 318 µM | 154 µM | – | – | OC[C@H]1O[C@@H](CNCc2ccc(Cl)cc2Cl)[C@H](O)[C@@H](O)[C@@H]1O |
| 465 µM | 186 µM | 407 µM | – | COc1ccc(CNC[C@@H]2O[C@H](CO)[C@@H](O)[C@H](O)[C@H]2O)cc1O |
| 44.3 µM | 627 µM | 714 µM | – | O=[N+]([O-])c1cccc(CNC[C@@H]2O[C@H](CO)[C@@H](O)[C@H](O)[C@H]2O)c1 |
| 622 µM | 105 µM | 160 µM | – | COc1ccc(CNC[C@@H]2O[C@H](CO)[C@@H](O)[C@H](O)[C@H]2O)c(OC)c1 |
| 325 µM | > 2000 µM | 445 µM | – | O=C(NC[C@@H]1O[C@H](CO)[C@@H](O)[C@H](O)[C@H]1O)c1cccs1 |
| 156 µM | 181 µM | – | – | OC[C@H]1O[C@@H](CNCc2ccccc2O)[C@H](O)[C@@H](O)[C@@H]1O |
| 457 µM | 179 µM | 306 µM | – | COc1ccc(CNC[C@@H]2O[C@H](CO)[C@@H](O)[C@H](O)[C@H]2O)cc1 |
| 377 µM | 186 µM | 223 µM | – | COc1cc(CNC[C@@H]2O[C@H](CO)[C@@H](O)[C@H](O)[C@H]2O)ccc1O |
| 39.2 µM | 270 µM | 1330 µM | – | OC[C@H]1O[C@@H](CNCc2ccccc2)[C@H](O)[C@@H](O)[C@@H]1O |
| 499 µM | > 2000 µM | 842 µM | – | O=C(NC[C@@H]1O[C@H](CO)[C@@H](O)[C@H](O)[C@H]1O)c1ccccc1 |
| 613 µM | 144 µM | 221 µM | – | OC[C@H]1O[C@@H](CNCc2ccc(Cl)c(Cl)c2)[C@H](O)[C@@H](O)[C@@H]1O |
